In ChEMBL document CHEMBL6071140, “Ocotillol Derivatives Mitigate Retinal Ischemia-Reperfusion Injury by Regulating the Keap1/Nrf2/ARE Signaling Pathway” (J Med Chem, 2024):
Calls of active or inactive are those of the source. The rule behind the calls is not given here.

Assays:
[1] = biological target: Kelch-like ECH-associated protein 1 (Homo sapiens) (UniProt Q14145); experiment: Binding affinity to Keap1 (unknown origin) incubated for 15 mins by MST assay; conditions: filed as activator
BMDM [2] = experiment: Antiinflammatory activity against LPS-stimulated mouse BMDM assessed as reduction in IL6 expression at 1.25 uM preincubated for 2 hrs followed by LPS addition for 22 hrs by ELISA; assay type: functional, cell-based; conditions: time 24.0 hrs
[3] = (§1) Upregulation of NQO1 protein expression in OGD stimulated rat R28 cells by Western blotting analysis; assay type: functional
[4] = Inhibition of OGD stimulated ROS accumulation in rat R28 cells assessed as fold decrease in ROS level at 1.25 uM preincubated for 24 hrs followed by OGD stimulation by DCFH-DA staining based confocal laser scanning microscopy; assay type: functional
[5] = (§2) Upregulation of Nrf2 protein expression in OGD stimulated rat R28 cells by Western blotting analysis; assay type: functional
Macrophage = experiment: Antiinflammatory activity against LPS-stimulated mouse macrophages assessed as reduction in NO production at 0.1 to 40 uM preincubated for 2 hrs followed by LPS addition for 22 hrs by Griess reagent based assay; assay type: functional, cell-based; conditions: dose 0.1-40 µM, time 24.0 hrs
[6] = (§3) Antiinflammatory activity against LPS-stimulated mouse BMDM assessed as fold decrease in TNFalpha expression at 1.25 uM preincubated for 2 hrs followed by LPS addition for 22 hrs by ELISA; assay type: functional; conditions: time 24 hrs
R28 [7] = experiment: Induction of Nrf2 translocation from cytosol to nucleus in OGD stimulated rat R28 cells; assay type: functional, cell-based
[8] = (§4) Antiinflammatory activity against LPS-stimulated mouse BMDM assessed as induction of polarization toward M2 phenotype at 1.25 uM preincubated for 2 hrs followed by LPS addition for 22 hrs by DAPI staining based confocal laser scanning microscopy; assay type: functional; conditions: time 24 hrs
[9] = (§5) Upregulation of HO-1 protein expression in OGD stimulated rat R28 cells by Western blotting analysis; assay type: functional
R28 [10] = experiment: Antioxidant activity in rat R28 cells assessed as protection against OGD induced cytotoxicity by measuring cellular ATP level at 0.1 to 40 uM preincubated under OGD condition for 8 hrs followed by reoxygenation for 4 hrs by CellTiter-Lumi Plus cell viability assay; assay type: functional, cell-based; conditions: dose 0.1-40 µM, time 12.0 hrs
BMDM [11] = experiment: Antiinflammatory activity against LPS-stimulated mouse BMDM assessed as reduction in NO production at 1.25 uM preincubated for 2 hrs followed by LPS addition for 22 hrs by Griess reagent based assay; assay type: functional, cell-based; conditions: time 24.0 hrs
[12] = Cytotoxicity against rat R28 cells assessed as decrease in cellular ATP content incubated for 24 hrs by CellTiter-Lumi Plus cell viability assay; assay type: toxicity, cell-based; conditions: r28, 24 h
R28 [13] = experiment: Antioxidant activity in rat R28 cells assessed as protection against OGD induced cytotoxicity by measuring cellular ATP level preincubated under OGD condition for 8 hrs followed by reoxygenation for 4 hrs by CellTiter-Lumi Plus cell viability assay; assay type: functional, cell-based; conditions: dose 0.1-40 µM, time 12.0 hrs
R28 [14] = experiment: as §1; assay type: functional
R28 [15] = experiment: as §2; assay type: functional
BMDM [16] = experiment: as §3; assay type: functional; conditions: time 24.0 hrs
BMDM [17] = experiment: as §4; assay type: functional; conditions: time 24.0 hrs
R28 [18] = experiment: as §5; assay type: functional

Kelch-like ECH-associated protein 1 (Homo sapiens), sequence (Q14145 whole entry): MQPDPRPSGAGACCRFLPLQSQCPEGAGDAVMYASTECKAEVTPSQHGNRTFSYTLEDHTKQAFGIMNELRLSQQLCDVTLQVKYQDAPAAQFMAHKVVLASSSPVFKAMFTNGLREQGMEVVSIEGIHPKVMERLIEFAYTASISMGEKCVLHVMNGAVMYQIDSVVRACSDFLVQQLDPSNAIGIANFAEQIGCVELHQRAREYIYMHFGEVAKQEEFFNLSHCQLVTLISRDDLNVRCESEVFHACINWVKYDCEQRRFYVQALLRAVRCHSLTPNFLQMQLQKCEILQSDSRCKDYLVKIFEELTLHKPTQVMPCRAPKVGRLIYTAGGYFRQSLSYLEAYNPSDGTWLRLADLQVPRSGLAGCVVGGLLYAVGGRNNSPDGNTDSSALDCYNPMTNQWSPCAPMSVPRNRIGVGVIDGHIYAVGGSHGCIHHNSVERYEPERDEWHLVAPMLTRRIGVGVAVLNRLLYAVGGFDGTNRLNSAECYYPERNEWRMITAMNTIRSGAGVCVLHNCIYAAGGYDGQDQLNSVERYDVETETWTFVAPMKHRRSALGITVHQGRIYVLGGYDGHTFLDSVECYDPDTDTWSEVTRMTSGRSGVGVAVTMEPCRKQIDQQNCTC

Question: Which results are given for `CN(CC(=O)O)CC(=O)Nc1nc2c(s1)C[C@]1(C)[C@H]3C[C@@H](O)[C@@H]4[C@@H]([C@]5(C)CC[C@@H](C(C)(C)O)O5)CC[C@@]4(C)[C@]3(C)CC[C@H]1C2(C)C`?
Answer: Activity [1]: Dose-Dependent Effect; Activity (BMDM [2]): Active; Activity [3]: 85.54%; fold change (FC) [4]: 1.16; Activity [5]: 96.59%; Activity (Macrophage): Active; fold change (FC) [6]: 48.3; Activity (R28 [7]): Active; Activity [8]: 100%; Activity [9]: 77.93%; Activity (R28 [10]): Active; Activity (BMDM [11]): Active; Activity [12]: Non-Toxic; Activity (R28 [13]): Dose-Dependent Effect

Question: For `CN(CC(=O)O)CC(=O)Nc1nc2c(s1)C[C@]1(C)[C@H]3C[C@@H](O)[C@@H]4[C@@H]([C@]5(C)CC[C@H](C(C)(C)O)O5)CC[C@@]4(C)[C@]3(C)CC[C@H]1C2(C)C`, which Activity [1] is on record?
Answer: Its Activity is “Dose-Dependent Effect”.

Question: And the Activity (BMDM [2])?
Answer: The Activity was “Active”.

Question: And the Activity (R28 [14])?
Answer: The Activity was “inactive”.

Question: And the “fold change (FC)” value [4]?
Answer: The value was 1.31.

Question: And the Activity (R28 [15])?
Answer: Its Activity is “inactive”.

Question: And the Activity (Macrophage)?
Answer: Its Activity is “Active”.

Question: And the Activity (BMDM [16])?
Answer: Its Activity is “inactive”.

Question: What about the Activity (BMDM [17]) of the same molecule?
Answer: The Activity was “Active”.

Question: And the Activity (R28 [18])?
Answer: The Activity was “inactive”.

Question: And the Activity (R28 [10])?
Answer: Its Activity is “Active”.

Question: And the Activity (BMDM [11])?
Answer: The Activity was “Active”.

Question: And the Activity [12]?
Answer: Its Activity is “Non-Toxic”.

Question: And the Activity (R28 [13])?
Answer: The Activity was “Dose-Dependent Effect”.
